pIC50: −log10 of the molar value.
Assays:
[1] = system: Plasmodium falciparum; assay: Antimalarial activity against chloroquine-sensitive Plasmodium falciparum D10; assay type: functional, organism-based
[2] = system: Plasmodium falciparum; assay: Antimalarial activity against chloroquine-resistant Plasmodium falciparum Dd2; assay type: functional, organism-based
[3] = system: CHO; assay: Cytotoxicity against CHO cells by MTT assay; assay type: cell-based; details: Cricetulus griseus
[4] = system: Plasmodium falciparum; assay: Resistant index, ratio of IC50 for chloroquine-resistant Plasmodium falciparum Dd2 to IC50 for chloroquine-sensitive Plasmodium falciparum D10; assay type: functional
[5] = Selectivity index, ratio of IC50 for CHO cells to IC50 for chloroquine-sensitive Plasmodium falciparum D10; assay type: toxicity, cell-based; details: hamster, read-out: Ratio IC50

Structure (SMILES): c1ccc(CNC[C@H]2C[C@@]3(c4ccccc4)CCN2C3)cc1 (relative stereo)
- pIC50 [1]: 4.73
- pIC50 [2]: 4.11
- pIC50 [3]: < 3.52
- Ratio IC50 [4]: 4.4

Structure (SMILES): Cc1ccc(CNC[C@H]2C[C@@]3(c4ccccc4)CCN2C3)cc1 (relative stereo)
- pIC50 [1]: 4.99
- selectivity ratio [5]: 15.7
- pIC50 [2]: 4.80
- pIC50 [3]: 3.79
- Ratio IC50 [4]: 1.5

Structure (SMILES): Clc1ccc(CNC[C@H]2C[C@@]3(c4ccccc4)CCN2C3)cc1 (relative stereo)
- pIC50 [1]: 5.22
- selectivity ratio [5]: 15.1
- pIC50 [2]: 4.93
- pIC50 [3]: 4.04
- Ratio IC50 [4]: 2

Structure (SMILES): c1ccc(CNC[C@@H]2C[C@@]3(c4ccccc4)CCN2C3)cc1 (relative stereo)
- pIC50 [1]: 5.58
- selectivity ratio [5]: 91.2
- pIC50 [2]: 4.62
- pIC50 [3]: 3.64
- Ratio IC50 [4]: 9.6

Structure (SMILES): Cc1ccc(CNC[C@@H]2C[C@@]3(c4ccccc4)CCN2C3)cc1 (relative stereo)
- pIC50 [1]: 6.09
- selectivity ratio [5]: 200
- pIC50 [2]: 5.00
- pIC50 [3]: 3.79
- Ratio IC50 [4]: 12.5

Structure (SMILES): Clc1ccc(CNC[C@@H]2C[C@@]3(c4ccccc4)CCN2C3)cc1 (relative stereo)
- pIC50 [1]: 5.86
- selectivity ratio [5]: 51.1
- pIC50 [2]: 5.62
- pIC50 [3]: 4.15
- Ratio IC50 [4]: 1.7

Structure (SMILES): CC[C@H]1CN2CCc3cc(OC)c(OC)cc3[C@@H]2C[C@@H]1C[C@H]1NCCc2cc(OC)c(OC)cc21 [EMETINE]
- pIC50 [3]: 6.48

Source: ChEMBL document CHEMBL2331223, “Synthesis of 2-aminomethyl-4-phenyl-1-azabicyclo[2.2.1]heptanes via LiAlH₄-induced reductive cyclization of 2-(4-chloro-2-cyano-2-phenylbutyl)aziridines and evaluation of their antimalarial activity” (Bioorg Med Chem Lett, 2013)
